Assay results reported in patent publication US20210214681A1, “STEM CELL-DERIVED HUMAN MICROGLIAL CELLS, METHODS OF MAKING AND METHODS OF USE” (MEMORIAL SLOAN-KETTERING CANCER CENTER, priority 2018, published 2021).

Legend:
hPSCs = experiment: hPSC differentiation to mesoderm and KDR+CD235a+ primitive hematopoietic precursors; type: cell-based, human
From the text: Inhibition of Wnt signaling biases early mesoderm cells from the posterior primitive streak to generate KDR+CD235a+ primitive hematopoietic precursors (Sturgeon et al., Nat. Biotechnol. (2014); 32, 554-561). These precursors will go on to initiate primitive hematopoiesis in the yolk sac, giving rise to early EMPs. In this microglial differentiation scheme, the present example adapted Wnt inhibition to induce primitive hematopoiesis from hPSCs in a monolayer strategy. […] These cells were also KDR+ and CD235a+ (primitive hematopoietic precursors) by day 4 of differentiation by flow cytometry. […] Next, the present example developed the timeline of hemogenic endothelium and hematopoietic cell. Hemogenic endothelium developed after 1 day of replating the sorted KDR^+CD235A^+ primitive hematopoietic precursors. These cells gave rise to hematopoietic cells in suspension over 7 days in culture, gradually becoming more numerous in culture (FIG. 2). In order to validate hemogenic endothelium by VE-cadherin+staining, at 1 day post-sort, the cells were positive for VE-cadherin by immunofluorescence confirming that they were hemogenic endothelium, and the cells in suspension had characteristic small nuclei of hematopoietic cells (FIG. 3). […]

rodent GSK3β homologs = details: cited from earlier work
WNT pathway = details: at the level of the pathway activator Porcupine; read-out: IC50 WNT pathway inhibition; cited from earlier work
SW480 cells = details: cited from earlier work
[1] = test system: complement C3 release from hPSC-derived microglia cultures; experiment: C3 release in Alzheimer's and H9 control co-cultures (ELISA); type: cell-based, human; details: all cultures, both Alzheimer's and control
Description: (§1) hPSC-derived microglia were used to model two neurodegenerative diseases, Alzheimer's and Amyotrophic Lateral Sclerosis (ALS). Mixed cultures of hPSC-derived microglia and Alzheimer's iPSC-derived neurons allowed to observe microglial activation in the disease culture, particularly with respect to increased complement C3 release. […] C3 was measured via ELISA. Additionally, GM-C SF diminished the C3 release in all cultures, both Alzheimer's and control (FIG. 20). […] Amyloid-β burden was decreased in microglial co-cultures with selectivity for amyloid-42 peptide (FIG. 21). […] Increased fluorescence of 42-488 inside microglial cells indicated increased uptake (FIG. 22). […] Switching fluorophores yielded similar result: amyloid-beta 42 was taken up more by microglial cells (FIG. 23). The fluorophores representing amyloid 42 and 40 were switched to make sure the effect of increased 42 brightness within cells was not due to a technical fluorophore brightness effect. Even with the switched fluorophores, in this experiment 42 was tagged to 555 and 40 to 488, there was more 42 brightness within microglial cells via immunofluorescence, corroborating the previous results that microglial cells phagocytosed amyloid-beta 42 selectively.
Culture supernatants were analyzed for C3 using the Millipore Luminex Multiplex Kit on the FlexMap 3D system. […]

[2] = test system: hPSC-derived microglial cells; experiment: Amyloid-beta phagocytosis by hPSC-derived microglial cells (FACS); type: cell-based, human; details: flow cytometry
Description: as §1

pMacs = experiment: Serum-free maturation of pMacs into macrophages; type: cell-based, human; details: pMacs in IMDM/F12/N2/B27 without serum
From the text: In the second strategy to generate microglia, the EMPs were matured into macrophages with 10% serum and M-CSF and IL-34. They developed the mature macrophage marker Cd11b by day 4 in culture, and the mature spindle morphology by day 11 (FIG. 10). All the cells that persisted in culture in serum and M-CSF and IL-34 after 11 days were CD45^+, indicating they were all hematopoietic. The majority also were positive for mature macrophage markers such as CX3CR1, CD14, Cd11b, and dectin by flow cytometry analysis (FIG. 11). The pMacs can also be matured into macrophages without serum, using IMDM/F12/N2/B27 in place of serum along with M-CSF and IL-34 (FIG. 12). […] Macrophage cells co-cultured with neurons yielded microglial cells with branching morphology and increased Iba1 immunofluorescence staining (FIG. 13). Iba1 was increased in microglial cells from macrophages, so the cells had transitioned into microglial identity through co-culture with neurons. Co-cultured pMac-derived microglia (EMP co-culture) and pMac-macrophage derived microglia (EMP-macrophage co-culture) share expression of key microglial genes with human fetal microglia (FIG. 14). Quantitative PCR of RNA from the two different strategies to derive microglia shared gene expression of a panel of key microglial genes with RNA from human fetal microglia (commercial source).

Cc1c[nH]c(-c2cnc(NCCNc3ccc(C#N)cn3)nc2-c2ccc(Cl)cc2Cl)n1 [CHIR99021, 6-(2-(4-(2,4-dichlorophenyl)-5-(4-methyl-1H-imidazol-2-yl)pyrimidin-2-ylamino)ethylamino)nicotinonitrile]
percentage of primitive hematopoietic precursors (KDR+CD235a+) (hPSCs; 18 hr at 3 uM followed by Wnt inhibition via IWP2 at 3 uM, flow cytometry): highest percentage
early mesoderm marked by Brachyury (T) (hPSCs; eighteen hours of Wnt activation, immunofluorescence): gave rise to early mesoderm
IC50 values against rodent GSK3β homologs (rodent GSK3β homologs): nanomolar

Cc1ccc2nc(NC(=O)CSc3nc4c(c(=O)n3-c3ccccc3)SCC4)sc2c1 [IWP-2, N-(6-methyl-1,3-benzothiazol-2-yl)-2-[(4-oxo-3-phenyl-6,7-dihydrothieno[3,2-d]pyrimidin-2-yl)thio]acetamide]
IC50 (WNT pathway): 27 nM

Oc1nc(-c2ccc(C(F)(F)F)cc2)nc2c1CSCC2 [XAV939]
degradation of β-catenin (SW480 cells): promotes the degradation of β-catenin
protein levels of the axin-GSK3β complex (SW480 cells): increases

GM-CSF: granulocyte-macrophage colony-stimulating factor
C3 release [1]: diminished
phagocytosis of amyloid-beta 40 [2]: increased
phagocytosis of amyloid-beta 42 [2]: increased
cell yield / cell division and appearance (pMacs): allowed division of the cells as well but the resulting cells appeared more granular and activated
